We go through three compounds from US11752084B2, “Methods for fat reduction or elimination of lipid droplets” (Alastin Skincare, Inc., priority 2017, dated 2023).

The test system of experiment [1] is hyaluronic acid. The following applies: ex vivo human skin model; cited from earlier work.
The subject of experiment [2] is Dermal Fibroblasts. Briefly: Gene expression in fibroblasts by quantitative-PCR. The format is cell-based. As to conditions: 72 hours exposure, vs untreated control. The procedure:
Gene expression in fibroblasts were measured following 72 hours of exposure to hexapeptide-11.
Dermal Fibroblasts were plated in cell culture media and allowed to grow to approximately 85-90% confluency following manufacturer's guidelines. Cells were harvested and plated at 10,000 cells per cm^2 in 6-well dishes cultured for 3 days. On the third day, confluency was estimated by microscopy and the cell culture media was replaced. The cells were treated with hexpapeptide-11 at a 100× concentration or control buffer without peptide. The time at initial exposure to the peptide is considered time, t=0. Treated and untreated control cells were harvested, counted and extracted for RNA at 24 hours, 48 hours, and 72 hours following t=0. Cell pellets and isolated RNA were stored at −80° C. until analysis by quantitative-PCR.
The 72-hour time point RNA samples (treated and untreated) were used for gene expression analysis. RNA was converted to first strand cDNA and analyzed by quantitative-PCR.

Experiment [3] relates to 3T3-L1 adipocytes and J774 macrophages. Briefly: Macrophage clustering on adipocytes. The experiment is classed as cell-based. The following applies: for number of macrophages associated with adipocytes: FIG. 5A, ~100 adipocytes/condition. The procedure: 3T3-L1 adipocytes were untreated or treated with TNF-alpha (˜25 nM) for 24 hours. One set of TNF-alpha treated adipocytes was also treated with hexapeptide-11 (0.1 mg/mL). One set of J774 macrophages was treated with hexapeptide-11 (0.1 mg/mL) for 24 hours. The macrophages were added to the adipocytes. After an 1 hour incubation, the cells were placed on ice and incubated with a fluorescently labeled Cholera toxin B subunit to label the cell surface of macrophages a fluorescent green. The cells were then fixed with 4% formaldehyde for 15 minutes and then incubated with LipidTox to label the lipid droplets within the adipocytes a fluorescent red color. Four conditions were performed: (1) J774 macrophages with untreated adipocytes; (2) J774 macrophages with TNF-alpha treated adipocytes; (3) J774 macrophages with TNF alpha treated adipocytes plus hexapeptide-11 in the 1 hour incubation of both cell types; and (4) peptide pretreated J774 macrophages with hexapeptide-11 pretreated TNF-alpha treated adipocytes incubated together in the presence of hexapeptide-11. Images taken with a 60× objective were analyzed by counting the number of macrophages associated with ˜100 adipocytes for each condition.

Turning to `CCCCCCCC(=O)CCc1ccc(O)c(OC)c1` [hydroxymethoxyphenyl decanone], in experiment [1], the “stimulation of dermal hyaluronic acid level versus placebo” value was 259% and the “stimulation of epidermal hyaluronic acid level versus placebo” value is listed as 198%.

Consider “Phe-Val-Ala-Pro-Phe-Pro (FVAPFP) [hexapeptide-11]”, for which, in experiment [2], the “Fold Change AMBRA1” value was found to be 3.59 fold, the “Fold Change ATG4A” value is listed as 3.29 fold, the “Fold Change ATG5” value is reported as 2.00 fold and the “Fold Change CASP3” value was 2.24 fold. In experiment [2], the “Fold Change COL5A2” value was −65.65 fold, the “Fold Change IGF1” value was −901.80 fold, the “Fold Change MAPK14” value was −83.67 fold and the “Fold Change PDGFRA” value is −369.65 fold. Besides, in experiment [2], the “Fold Change PSMB5” value was 2.56 fold, the “Fold Change SOD3” value is given as −101.59 fold and the “Fold Change TNF” value is −92.41 fold. Further, the macrophage clustering result in experiment [3] (0.1 mg/mL, TNF-alpha treated adipocytes) was “increase macrophage clustering”. Moreover, the “number of macrophages associated with adipocytes” value in experiment [3] is given as “increased”. Besides, in experiment [3] (TNF-alpha and peptide treatments, FIG. 4 right panel), the adipocyte droplet breakdown entry is “further adipocyte droplet breakdown”.

Regarding TNF-alpha [reference compound], the “number of macrophages associated with adipocytes” value in experiment [3] is listed as “greatly increased”.
